Data taken from ChEMBL document CHEMBL1153550, “In vitro study of Candida tropicalis isolates exhibiting paradoxical growth in the presence of high concentrations of caspofungin” (2007).
Converted amounts (≈) assume the structure as drawn. The source made the active and inactive calls. The calls are words filed in the database; no cut-off is given here.

Legend:
Candida tropicalis [1] = test: Antifungal activity against Candida tropicalis isolate 14 in RPMI 1640 medium assessed as paradoxical growth at 12.5 ug/ml after 24 hrs by broth microdilution method; assay type: functional, organism-based
Candida tropicalis [2] = test: Antifungal activity against 10^5 CFU/ml Candida tropicalis clinical isolates in RPMI 1640 medium at 6.25 ug/ml after 48 hrs followed by incubation in drug free medium for 48 hrs by broth microdilution method; assay type: functional, organism-based
Candida tropicalis [3] = test: Antifungal activity against 2 x 10^7 CFU/ml Candida tropicalis isolate 4 in RPMI 1640 medium after 24 hrs by broth microdilution method; assay type: functional; details: isolate 4, 24 h
Candida tropicalis [4] = test: Antifungal activity against > 2 x 10^7 CFU/ml Candida tropicalis isolate 3 in antibiotic medium 3 assessed as partial growth after 24 hrs by broth microdilution method; assay type: functional, organism-based
Candida tropicalis [5] = test: Antifungal activity against > 2 x 10^7 CFU/ml Candida tropicalis isolate 7 in antibiotic medium 3 assessed as partial growth after 24 hrs by broth microdilution method; assay type: functional, organism-based
Candida tropicalis [6] = test: Antifungal activity against 2 x 10^7 CFU/ml Candida tropicalis isolate 10 in RPMI 1640 medium after 24 hrs by broth microdilution method; assay type: functional; details: isolate 10, 24 h
Candida tropicalis [7] = test: Antifungal activity against 10^5 CFU/ml Candida tropicalis isolate 3 in RPMI 1640 medium at 12.5 ug/ml treated for 48 hrs followed by incubation in drug free medium for 48 hrs by broth microdilution method; assay type: functional, organism-based
Candida tropicalis [8] = test: Antifungal activity against 10^5 CFU/ml Candida tropicalis isolate 4 in RPMI 1640 medium at 0.4 to 12.5 ug/ml treated for 48 hrs followed by incubation in drug free medium for 48 hrs by broth microdilution method; assay type: functional, organism-based
Candida tropicalis [9] = test: Antifungal activity against 10^5 CFU/ml Candida tropicalis isolate 15 in RPMI 1640 medium at 12.5 ug/ml treated for 24 hrs followed by incubation in drug free medium for 48 hrs by broth microdilution method; assay type: functional, organism-based
Candida tropicalis [10] = test: Antifungal activity against > 2 x 10^7 CFU/ml Candida tropicalis isolate 12 in antibiotic medium 3 assessed as partial growth after 24 hrs by broth microdilution method; assay type: functional, organism-based
Candida tropicalis [11] = test: Antifungal activity against 10^5 CFU/ml Candida tropicalis isolate 7 in RPMI 1640 medium at 12.5 ug/ml treated for 48 hrs followed by incubation in drug free medium for 48 hrs by broth microdilution method; assay type: functional, organism-based
Candida tropicalis [12] = test: Antifungal activity against > 2 x 10^7 CFU/ml Candida tropicalis isolate 13 in antibiotic medium 3 assessed as partial growth after 24 hrs by broth microdilution method; assay type: functional, organism-based
Candida tropicalis [13] = test: Antifungal activity against 10^5 CFU/ml Candida tropicalis isolate 12 in RPMI 1640 medium at 12.5 ug/ml treated for 48 hrs followed by incubation in drug free medium for 48 hrs by broth microdilution method; assay type: functional, organism-based
Candida tropicalis [14] = test: Antifungal activity against > 2 x 10^7 CFU/ml Candida tropicalis isolate 8 in antibiotic medium 3 assessed as partial growth after 24 hrs by broth microdilution method; assay type: functional, organism-based
Candida tropicalis [15] = test: Antifungal activity against 10^5 CFU/ml Candida tropicalis isolate 4 in RPMI 1640 medium at =< 0.09 ug/ml after 24 hrs followed by incubation in drug free medium for 48 hrs by broth microdilution method; assay type: functional, organism-based
Candida tropicalis [16] = test: Antifungal activity against Candida tropicalis isolate 15 in RPMI 1640 medium assessed as paradoxical growth at 12.5 ug/ml after 48 hrs by broth microdilution method; assay type: functional, organism-based
Candida tropicalis [17] = test: Antifungal activity against > 2 x 10^7 CFU/ml Candida tropicalis isolate 3 in RPMI 1640 medium assessed as partial growth after 24 hrs by broth microdilution method; assay type: functional, organism-based
Candida tropicalis [18] = test: Antifungal activity against 10^5 CFU/ml Candida tropicalis isolate 8 in RPMI 1640 medium at =< 0.09 ug/ml after 24 hrs followed by incubation in drug free medium for 48 hrs by broth microdilution method; assay type: functional, organism-based
Candida tropicalis [19] = test: Antifungal activity against > 2 x 10^7 CFU/ml Candida tropicalis isolate 9 in antibiotic medium 3 assessed as partial growth after 24 hrs by broth microdilution method; assay type: functional, organism-based
Candida tropicalis [20] = test: Antifungal activity against > 2 x 10^7 CFU/ml Candida tropicalis isolate 11 in RPMI 1640 medium assessed as partial growth after 24 hrs by broth microdilution method; assay type: functional, organism-based
Candida tropicalis [21] = test: Antifungal activity against > 2 x 10^7 CFU/ml Candida tropicalis isolate 14 in antibiotic medium 3 assessed as partial growth after 24 hrs by broth microdilution method; assay type: functional, organism-based
Candida tropicalis [22] = test: Antifungal activity against 2 x 10^7 CFU/ml Candida tropicalis isolate 3 in RPMI 1640 medium after 24 hrs by broth microdilution method; assay type: functional; details: isolate 3, 24 h
Candida tropicalis [23] = test: Antifungal activity against 2 x 10^7 CFU/ml Candida tropicalis isolate 10 in antibiotic medium 3 after 24 hrs by broth microdilution method; assay type: functional; details: isolate 10, 24 h
Candida tropicalis [24] = test: Antifungal activity against 10^5 CFU/ml Candida tropicalis isolate 14 in RPMI 1640 medium at 12.5 ug/ml treated for 24 hrs followed by incubation in drug free medium for 48 hrs by broth microdilution method; assay type: functional, organism-based
Candida tropicalis [25] = test: Antifungal activity against Candida tropicalis isolate 4 in RPMI 1640 medium assessed as paradoxical growth at 12.5 ug/ml after 24 hrs by broth microdilution method; assay type: functional, organism-based
Candida tropicalis [26] = test: Antifungal activity against 2 x 10^7 CFU/ml Candida tropicalis isolate 3 in antibiotic medium 3 after 24 hrs by broth microdilution method; assay type: functional; details: isolate 3, 24 h
Candida tropicalis [27] = test: Antifungal activity against 10^5 CFU/ml Candida tropicalis ATCC 750 in RPMI 1640 medium at 0.4 to 12.5 ug/ml treated for 48 hrs followed by incubation in drug free medium for 48 hrs by broth microdilution method; assay type: functional, organism-based
Candida tropicalis [28] = test: Antifungal activity against > 2 x 10^7 CFU/ml Candida tropicalis isolate 5 in antibiotic medium 3 assessed as partial growth after 24 hrs by broth microdilution method; assay type: functional, organism-based
Candida tropicalis [29] = test: Antifungal activity against 10^5 CFU/ml Candida tropicalis isolate 5 in RPMI 1640 medium at 12.5 ug/ml treated for 24 hrs followed by incubation in drug free medium for 48 hrs by broth microdilution method; assay type: functional, organism-based
Candida tropicalis [30] = test: Antifungal activity against 10^5 CFU/ml Candida tropicalis isolate 2 in RPMI 1640 medium at 12.5 ug/ml treated for 48 hrs followed by incubation in drug free medium for 48 hrs by broth microdilution method; assay type: functional, organism-based
Candida tropicalis [31] = test: Antifungal activity against Candida tropicalis isolate 8 in RPMI 1640 medium assessed as paradoxical growth at 12.5 ug/ml after 24 hrs by broth microdilution method; assay type: functional, organism-based
Candida tropicalis [32] = test: Antifungal activity against Candida tropicalis ATCC 750 in RPMI 1640 medium assessed as paradoxical growth at 6.25 ug/ml after 24 hrs by broth microdilution method; assay type: functional, organism-based
Candida tropicalis [33] = test: Antifungal activity against 2 x 10^7 CFU/ml Candida tropicalis isolate 14 in RPMI 1640 medium after 24 hrs by broth microdilution method; assay type: functional; details: isolate 14, 24 h
Candida tropicalis [34] = test: Antifungal activity Candida tropicalis ATCC 750 in RPMI 1640 medium at 0.19 to 6.25 ug/ml after 24 hrs by time-kill assay; assay type: functional, organism-based
Candida tropicalis [35] = test: Antifungal activity against 2 x 10^7 CFU/ml Candida tropicalis isolate 2 in antibiotic medium 3 after 24 hrs by broth microdilution method; assay type: functional; details: isolate 2, 24 h

MIC (Candida tropicalis [3]): 0.024 µg/mL (≈ 0.022 µM) | MIC (Candida tropicalis [6]): 0.024 µg/mL (≈ 0.022 µM) | MIC (Candida tropicalis [22]): 0.024 µg/mL (≈ 0.022 µM) | MIC (Candida tropicalis [23]): 0.024 µg/mL (≈ 0.022 µM) | MIC (Candida tropicalis [26]): 0.024 µg/mL (≈ 0.022 µM) | MIC (Candida tropicalis [33]): 0.024 µg/mL (≈ 0.022 µM) | MIC (Candida tropicalis [35]): 0.024 µg/mL (≈ 0.022 µM)
Structure (SMILES): CC[C@H](C)C[C@H](C)CCCCCCCCC(=O)N[C@H]1C[C@@H](O)[C@@H](NCCN)NC(=O)[C@@H]2[C@@H](O)CCN2C(=O)[C@H]([C@H](O)CCN)NC(=O)[C@H]([C@H](O)[C@@H](O)c2ccc(O)cc2)NC(=O)[C@@H]2C[C@@H](O)CN2C(=O)[C@H]([C@@H](C)O)NC1=O [CASPOFUNGIN]
Activity (Candida tropicalis [1]): inactive | Activity (Candida tropicalis [2]): inactive | Activity (Candida tropicalis [4]): inactive | Activity (Candida tropicalis [5]): inactive | Activity (Candida tropicalis [7]): inactive | Activity (Candida tropicalis [8]): inactive | Activity (Candida tropicalis [9]): inactive | Activity (Candida tropicalis [10]): inactive | Activity (Candida tropicalis [11]): Active | Activity (Candida tropicalis [12]): inactive | Activity (Candida tropicalis [13]): inactive | Activity (Candida tropicalis [14]): inactive | Activity (Candida tropicalis [15]): Active | Activity (Candida tropicalis [16]): Active | Activity (Candida tropicalis [17]): inactive | Activity (Candida tropicalis [18]): Active | Activity (Candida tropicalis [19]): inactive | Activity (Candida tropicalis [20]): inactive | Activity (Candida tropicalis [21]): inactive | Activity (Candida tropicalis [24]): inactive | Activity (Candida tropicalis [25]): inactive | Activity (Candida tropicalis [27]): inactive | Activity (Candida tropicalis [28]): inactive | Activity (Candida tropicalis [29]): inactive | Activity (Candida tropicalis [30]): inactive | Activity (Candida tropicalis [31]): inactive | Activity (Candida tropicalis [32]): inactive | Activity (Candida tropicalis [34]): Active
